Assay [1] concerns the target T1, human DLK (Homo sapiens, UniProt Q12852).
T1 sequence (Q12852 1-859): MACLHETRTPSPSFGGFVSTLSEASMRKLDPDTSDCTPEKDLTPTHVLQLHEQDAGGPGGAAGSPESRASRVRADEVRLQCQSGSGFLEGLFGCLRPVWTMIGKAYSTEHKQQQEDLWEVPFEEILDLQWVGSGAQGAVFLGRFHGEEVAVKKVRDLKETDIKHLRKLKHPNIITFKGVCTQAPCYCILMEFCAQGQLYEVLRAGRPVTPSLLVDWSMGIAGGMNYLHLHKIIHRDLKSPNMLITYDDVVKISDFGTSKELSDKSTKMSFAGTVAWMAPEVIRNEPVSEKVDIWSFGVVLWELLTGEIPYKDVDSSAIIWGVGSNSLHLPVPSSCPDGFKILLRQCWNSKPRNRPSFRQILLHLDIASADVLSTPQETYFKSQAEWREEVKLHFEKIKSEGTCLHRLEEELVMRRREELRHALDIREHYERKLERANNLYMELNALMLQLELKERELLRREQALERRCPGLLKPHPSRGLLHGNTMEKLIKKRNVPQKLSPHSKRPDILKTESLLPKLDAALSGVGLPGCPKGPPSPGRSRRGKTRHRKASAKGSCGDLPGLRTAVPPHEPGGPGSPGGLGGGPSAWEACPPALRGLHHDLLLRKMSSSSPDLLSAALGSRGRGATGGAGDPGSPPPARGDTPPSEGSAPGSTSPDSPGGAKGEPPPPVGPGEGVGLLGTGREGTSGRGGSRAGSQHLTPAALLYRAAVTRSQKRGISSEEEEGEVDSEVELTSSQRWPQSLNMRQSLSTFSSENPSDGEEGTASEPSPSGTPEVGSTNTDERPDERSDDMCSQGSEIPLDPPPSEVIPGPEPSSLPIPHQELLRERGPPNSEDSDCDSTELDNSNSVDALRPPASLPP
Kind of assay: Phospho-cJun Cellular Assay. Conditions: HEK293 cells stably transfected with Dox-inducible human DLK; p-cJun (Ser63); 5 h compound incubation. Details: expressed in transfected cells. In kind it is cell-based. The gist of the method:
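HEK293 cells with doxycycline-induced human DLK (induced 20 h; uninduced cells as negative control) treated with compound for 5 h at 37 °C. Phospho-cJun (Ser63) measured in lysates with detection-antibody kit; IC50 from variable-slope dose-response fit.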

Assay [2] addresses T1, human DLK. Kind of assay: DLK Kd Determinations (KINOMEscan KdELECT, DiscoveRx). As to conditions: fusion protein of full length human DLK (amino acids 1-859) and NFkB DNA binding domain; qPCR readout; duplicate. Details: full length of human DLK (amino acids 1-859); host or cells: transiently transfected HEK293 cells; unpurified extract. The gist of the method:
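Kd values were fitted by Hill equation (slope −1) from duplicate 11-point 3-fold dilutions starting at 30,000 nM. Bead-immobilized ligand competed with compound for DNA-tagged full-length human DLK fusion in HEK293 extract (final DMSO 0.9%, 1 h, room temperature), with qPCR readout of bound kinase.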
For orientation: Quantitative PCR measures a nucleic acid by following its amplification.

One may read the IC50 as the concentration that inhibits the measured activity by half. The term Kd denotes the free concentration of one partner at which half of the binding sites on the other are occupied at equilibrium, for simple one-to-one binding.

On to `Nc1ncc(-c2cn([C@H]3[C@@H]4CN(C5COC5)C[C@@H]43)c(C3CC3)n2)cc1C(F)(F)F` [Example 73, 5-(2-cyclopropyl-1-((1R,5S,6s)-3-(oxetan-3-yl)-3-azabicyclo[3.1.0]hexan-6-yl)-1H-imidazol-4-yl)-3-(trifluoromethyl)pyridin-2-amine], for which half-maximal inhibition at human DLK [1] (IC50) was put at 1200 nM. This compound also registered a Kd at human DLK [2] of 56 nM.
The matching figures for `Nc1ncc(-c2cn([C@H]3[C@@H]4CN(C5CCOCC5)C[C@@H]43)c(C3CC3)n2)cc1C(F)(F)F` [Example 74, 5-(2-cyclopropyl-1-((1R,5S,6s)-3-(tetrahydro-2H-pyran-4-yl)-3-azabicyclo[3.1.0]hexan-6-yl)-1H-imidazol-4-yl)-3-(trifluoromethyl)pyridin-2-amine]: 1350 nM and 54 nM.
The like results for `Nc1ncc(-c2cn([C@H]3[C@@H]4CN(C5CCOCC5)C[C@@H]43)c(CC3CC3)n2)cc1C(F)(F)F` [Example 76, 5-(2-(cyclopropylmethyl)-1-((1R,5S,6s)-3-(tetrahydro-2H-pyran-4-yl)-3-azabicyclo[3.1.0]hexan-6-yl)-1H-imidazol-4-yl)-3-(trifluoromethyl)pyridin-2-amine] were, in that order, 760 nM and 51 nM.
At human DLK [1], `Nc1ncc(-c2cn([C@H]3[C@@H]4CN(CCF)C[C@@H]43)c(CC3CC3)n2)cc1C(F)(F)F` [Example 77, 5-(2-(cyclopropylmethyl)-1-((1R,5S,6s)-3-(2-fluoroethyl)-3-azabicyclo[3.1.0]hexan-6-yl)-1H-imidazol-4-yl)-3-(trifluoromethyl)pyridin-2-amine] returned an IC50 of 1490 nM. Also, binding on human DLK [2] was characterised by a dissociation constant (Kd) of 17 nM.
The like results for `COCCN1C[C@@H]2[C@H](C1)[C@H]2n1cc(-c2cnc(N)c(C(F)(F)F)c2)nc1CC1CC1` [Example 78, 5-(2-(cyclopropylmethyl)-1-((1R,5S,6s)-3-(2-methoxyethyl)-3-azabicyclo[3.1.0]hexan-6-yl)-1H-imidazol-4-yl)-3-(trifluoromethyl)pyridin-2-amine] were, in that order, 781 nM and 64 nM.
`CC(C)c1nc(-c2cnc(N)c(OC(F)(F)F)c2)cn1[C@H]1[C@@H]2CN(C3COC3)C[C@@H]21` [Example 80, 5-(2-isopropyl-1-((1R,5S,6s)-3-(oxetan-3-yl)-3-azabicyclo[3.1.0]hexan-6-yl)-1H-imidazol-4-yl)-3-(trifluoromethoxy)pyridin-2-amine] came in with an IC50 on human DLK [1] of 1670 nM. Further, the Kd on human DLK [2] turned out to be 42 nM.
The matching figures for `CC(C)c1nc(-c2cnc(N)c(OC(F)(F)F)c2)cn1[C@H]1[C@@H]2CN(C3CCOCC3)C[C@@H]21` [Example 81, 5-(2-isopropyl-1-((1R,5S,6s)-3-(tetrahydro-2H-pyran-4-yl)-3-azabicyclo[3.1.0]hexan-6-yl)-1H-imidazol-4-yl)-3-(trifluoromethoxy)pyridin-2-amine]: 1510 nM and 99 nM.
The matching figures for `CC(C)c1nc(-c2cnc(N)c(OC(F)F)c2)cn1[C@H]1[C@@H]2CN(C3COC3)C[C@@H]21` [Example 83, 3-(difluoromethoxy)-5-(2-isopropyl-1-((1R,5S,6s)-3-(oxetan-3-yl)-3-azabicyclo[3.1.0]hexan-6-yl)-1H-imidazol-4-yl)pyridin-2-amine]: 3550 nM and 160 nM.
`CCCc1nc(-c2cnc(N)c(C(F)(F)F)c2)cn1[C@H]1[C@@H]2CN(CCF)C[C@@H]21` [Example 84, 5-(1-((1R,5S,6s)-3-(2-fluoroethyl)-3-azabicyclo[3.1.0]hexan-6-yl)-2-propyl-1H-imidazol-4-yl)-3-(trifluoromethyl)pyridin-2-amine] yielded a half-maximal inhibitory concentration (IC50) against human DLK [1] of 1610 nM. The Kd on human DLK [2] was determined as 160 nM.
The matching figures for `CC(C)(C)Cc1nc(-c2cnc(N)c(C(F)(F)F)c2)cn1[C@H]1[C@@H]2CN(CCF)C[C@@H]21` [Example 85, 5-(1-((1R,5S,6s)-3-(2-fluoroethyl)-3-azabicyclo[3.1.0]hexan-6-yl)-2-neopentyl-1H-imidazol-4-yl)-3-(trifluoromethyl)pyridin-2-amine]: 594 nM and 60 nM.
The matching figures for `Nc1ncc(-c2cn([C@H]3[C@@H]4CN(C5CCOCC5)C[C@@H]43)c(CC3CC3)n2)cc1OC(F)F` [Example 88, 5-(2-(cyclopropylmethyl)-1-((1R,5S,6s)-3-(tetrahydro-2H-pyran-4-yl)-3-azabicyclo[3.1.0]hexan-6-yl)-1H-imidazol-4-yl)-3-(difluoromethoxy)pyridin-2-amine]: 994 nM and 71 nM.
As to `Nc1ncc(-c2cn([C@H]3[C@@H]4CNC[C@@H]43)c(CC3CC3)n2)cc1OC(F)(F)F` [Example 90, 5-(1-((1R,5S,6s)-3-azabicyclo[3.1.0]hexan-6-yl)-2-(cyclopropylmethyl)-1H-imidazol-4-yl)-3-(trifluoromethoxy)pyridin-2-amine], the IC50 at human DLK [1] was 1120 nM. On human DLK [2], the Kd was determined as 40 nM.
`Nc1ncc(-c2cn([C@H]3[C@@H]4CN(C5COC5)C[C@@H]43)c(CC3CC3)n2)cc1OC(F)(F)F` [Example 92, 5-(2-(cyclopropylmethyl)-1-((1R,5S,6s)-3-(oxetan-3-yl)-3-azabicyclo[3.1.0]hexan-6-yl)-1H-imidazol-4-yl)-3-(trifluoromethoxy)pyridin-2-amine]: the IC50 at human DLK [1] came out at 1820 nM. Moreover, the affinity on human DLK [2], expressed as Kd, was 55 nM.
The like results for `COCCN1C[C@@H]2[C@H](C1)[C@H]2n1cc(-c2cnc(N)c(C(F)(F)F)c2)nc1C1CC1` [Example 94, 5-(2-cyclopropyl-1-((1R,5S,6s)-3-(2-methoxyethyl)-3-azabicyclo[3.1.0]hexan-6-yl)-1H-imidazol-4-yl)-3-(trifluoromethyl)pyridin-2-amine] were, in that order, 1960 nM and 61 nM.
The matching figures for `Nc1ncc(-c2cn([C@H]3[C@@H]4CN(CCF)C[C@@H]43)c(C3CC3)n2)cc1C(F)(F)F` [Example 95, 5-(2-cyclopropyl-1-((1R,5S,6s)-3-(2-fluoroethyl)-3-azabicyclo[3.1.0]hexan-6-yl)-1H-imidazol-4-yl)-3-(trifluoromethyl)pyridin-2-amine]: 1200 nM and 12.3 nM.
The like results for `Nc1ncc(-c2cn([C@H]3[C@@H]4CN(C5CCOCC5)C[C@@H]43)c(CC3CC3)n2)cc1OC(F)(F)F` [Example 97, 5-(2-(cyclopropylmethyl)-1-((1R,5S,6s)-3-(tetrahydro-2H-pyran-4-yl)-3-azabicyclo[3.1.0]hexan-6-yl)-1H-imidazol-4-yl)-3-(trifluoromethoxy)pyridin-2-amine] were, in that order, 1900 nM and 57 nM.
In turn, `Nc1ncc(-c2cn([C@H]3[C@@H]4CN(C5CCOCC5)C[C@@H]43)c(C3CC3)n2)cc1OC(F)F` [Example 105, 5-(2-cyclopropyl-1-((1R,5S,6s)-3-(tetrahydro-2H-pyran-4-yl)-3-azabicyclo[3.1.0]hexan-6-yl)-1H-imidazol-4-yl)-3-(difluoromethoxy)pyridin-2-amine] yielded an IC50 at human DLK [1] of 1900 nM. This compound displayed a dissociation constant (Kd) on human DLK [2] of 79 nM.
Consider `Nc1ncc(-c2cn([C@H]3[C@@H]4CN(CCF)C[C@@H]43)c(CC3CC3)n2)cc1OC(F)F` [Example 116, 5-(2-(cyclopropylmethyl)-1-((1R,5S,6s)-3-(2-fluoroethyl)-3-azabicyclo[3.1.0]hexan-6-yl)-1H-imidazol-4-yl)-3-(difluoromethoxy)pyridin-2-amine], for which the IC50 on human DLK [1] is 1440 nM. This compound yielded a Kd at human DLK [2] of 53 nM.
The like results for `COCCN1C[C@@H]2[C@H](C1)[C@H]2n1cc(-c2cnc(N)c(OC(F)F)c2)nc1CC1CC1` [Example 117, 5-(2-(cyclopropylmethyl)-1-((1R,5S,6s)-3-(2-methoxyethyl)-3-azabicyclo[3.1.0]hexan-6-yl)-1H-imidazol-4-yl)-3-(difluoromethoxy)pyridin-2-amine] were, in that order, 987 nM and 48 nM.
The matching figures for `Nc1ncc(-c2cn([C@H]3[C@@H]4CN(C5CCOCC5)C[C@@H]43)c(CC(F)(F)F)n2)cc1C(F)(F)F` [Example 119, 5-(1-((1R,5S,6s)-3-(tetrahydro-2H-pyran-4-yl)-3-azabicyclo[3.1.0]hexan-6-yl)-2-(2,2,2-trifluoroethyl)-1H-imidazol-4-yl)-3-(trifluoromethyl)pyridin-2-amine]: 1850 nM and 71 nM.

The record behind these values is US20180057507A1, “INHIBITORS OF DUAL LEUCINE ZIPPER (DLK) KINASE FOR THE TREATMENT OF DISEASE” (Board of Regents, The University of Texas System, priority 2016, published 2018).
